Laboratory results: patent publication US6878713B2, “Generation triple-targeting, chiral, broad-spectrum antimicrobial 7-substituted piperidino-quinolone carboxylic acid derivatives, their preparation, compositions and use as medicaments” (Wockhardt Limited, priority 2001, dated 2005)
Values after ≈ are worked out from the molar mass of the structure shown.

Legend:
[1] = test system: Fluoroquinolone-Resistant Strains; test: In-vitro antimicrobial test (MIC, two-fold serial agar dilution, NCCLS), Table 18; format: cell-based; details: for MICs: hydrochloride
Method: (§1) The test method was in accordance with the standard NCCLS protocol (Methods for Dilution Antimicrobial Susceptibility Tests for Bacteria that grow Aerobicially, Approved Standards, M7-A5, Fifth Edition, January 2000).
(§2) The antibacterial activities (minimum inhibitory concentration: MIC, […]) were determined by using the two-fold serial agar dilution method recommended by NCCLS. The media used for preculture and main culture were Tryptic Soya broth (Difco) and Mueller Hinton medium (Difco), respectively. The Mueller Hinton agar was supplemented with 5% sheep blood for streptococci. Overnight cultures were diluted with buffered saline (pH 7.2) to the final cell density of 5×10^6-10^7 CFU/ml, and each bacterial suspension was applied with a replicator (Denley's multipoint inoculator, UK) onto a series of Mueller-Hinton agar plates containing antibacterial agents at various concentrations. Final inoculum was approximately 10^4 CFU/spot. The plates were incubated for 18 hrs at 37° C. The MIC was defined as the lowest concentration of an antibacterial agent that inhibits the development of visible microbial growth on agar.

[2] = test system: Fluoroquinolone Sensitive Strains; test: In-vitro antimicrobial test (MIC, two-fold serial agar dilution, NCCLS), Table 17; format: cell-based; details: for MICs: hydrochloride
Method: as §1, §2

J 744 (mouse macrophage) = test: Cytotoxicity test (Alamar blue), J 744 cells, Table 23; format: cell-based; details: 3 hrs drug exposure, further 96 hrs incubation
Method: Compounds were evaluated for their cytotoxic potential against two celllines viz. […] Cytotoxic drugs inhibit this reaction resulting into blue coloured well. Minimum drug concentration inhibiting Alamar blue color change i.e. resulting into blue coloured wells for a given drug is considered cytotoxic concentration.

[3] = test system: V79 (Chinese Hamster Lung); test: Cytotoxicity test (Alamar blue), V79 cells, Table 23; format: cell-based; details: 3 hrs drug exposure, further 96 hrs incubation
Method: Compounds were evaluated for their cytotoxic potential against two […] viz. […] Cells were grown for 3-4days in a culture flask using D-MEM (Dulbecco's Modified Eagle. […] Freshly grown cells were distributed in microtiter plates at a cell density of 10^5-10^6 cells/well and allowed to […] form monolayer by incubating the microtiter plate at […] for 24 hrs. […] Following 3 hrs. of drug exposure, cell were washed with D-MEM and incubated further for 96 hrs. Cytotoxic effects of drugs were monitored through daily microscopic observation and by ascertaining the metabolic status through redox indicator Alamar blue. Healthy actively metabolising cells bring about colour change of Alamar blue from blue to pink within an overnight incubation. Cytotoxic drugs inhibit this reaction resulting into blue coloured well. Minimum drug concentration inhibiting Alamar blue color change i.e. resulting into blue coloured wells for a given drug is considered cytotoxic concentration.

[4] = test system: Multidrug-Resistant (MDR) Pneumococcal Infections; test: In-vivo antimicrobial test, systemic infection model (mouse septicemia), Table 22; parameters: species or system Swiss male and female mice; details: Streptococcus pneumoniae, po, oral dosing 1 hour and 5 hours post-infection, survival on day 7, strain resistant to β-lactams, macrolides and fluoroquinolones, read-out: ED50 p.o., MDR S. pneumoniae 718
Method: The in vivo efficacy was studied through mouse septicemia model of infection in Swiss male and female mice (4 weeks old, 20+2 g weight) using 6 animals in each group. Infective organisms were inoculated intraperitonially. Compound were administered by oral route 1 hour and 5 hours post-infection. […] Appropriate comparators were included in the study.

[5] = Staphylococcus aureus, MRSA, MRSA 032
[6] = Streptococcus mitis, Cipro^R S. mitis 938
[7] = Streptococcus pneumoniae, FQ^R S. pneumoniae 718
[8] = Enterococcus faecalis, ATCC29212, E. faecalis ATCC 29212
[9] = Escherichia coli, ATCC25922, E. coli ATCC 25922
[10] = Pseudomonas aeruginosa, P. aeruginosa 27853
[11] = S. sanguis ATCC 10556 (Viridans Streptococci group)
[12] = Staphylococcus aureus, ATCC 25923 / MSSA, MSSA ATCC 25923
[13] = Streptococcus pneumoniae, ATCC49619, S. pneumoniae ATCC 49619

Row | MIC ([1]; Cipro^R S. sanguis 941) [µg/mL] | MIC [1, 5] [µg/mL] | MIC [1, 6] [µg/mL] | MIC [1, 7] [µg/mL] | melting point [°C] | MIC [2, 8] [µg/mL] | MIC [2, 9] [µg/mL] | MIC [2, 10] [µg/mL] | MIC [2, 11] [µg/mL] | MIC [2, 12] [µg/mL] | MIC [2, 13] [µg/mL] | Compound | further results
1 | 3.12 (≈ 8.36 µM) | 0.8 (≈ 2.14 µM) | 3.12 (≈ 8.36 µM) | 3.12 (≈ 8.36 µM) | 223 to 225 | 0.2 (≈ 0.536 µM) | 0.4 (≈ 1.07 µM) | 12.5 (≈ 33.5 µM) | 0.2 (≈ 0.536 µM) | 0.012 (≈ 0.0321 µM) | 0.1 (≈ 0.268 µM) | Cc1c(N2CC[C@@H](N)[C@H](C)C2)c(F)cc2c(=O)c(C(=O)O)cn(C3CC3)c12 (single isomer, unassigned) [Compound 97, trans-1-Cyclopropyl-6-fluoro-1,4-dihydro-8-methyl-7-(4-amino-3-methyl-1-piperidinyl)-4-oxo-quinoline-3-carboxylic acid] | Cytotoxic concentration, J 744 Macrophage (J 744 (mouse macrophage)): >1000 µg/mL; Cytotoxic concentration, V 79 CHL [3]: >1000 µg/mL
2 | 3.12 | 1.56 | 1.56 | 1.56 | 262 to 265 | 0.1 | 0.006 | 1.56 | 0.025 | 0.025 | 0.05 | Cc1c(N2CC[C@@H](N)[C@H](C)C2)c(F)cc2c(=O)c(C(=O)O)cn(C3CC3)c12.Cl (single isomer, unassigned) [Compound 98, trans-1-Cyclopropyl-6-fluoro-1,4-dihydro-8-methyl-7-(4-amino-3-methyl-1-piperidinyl)-4-oxo-quinoline-3-carboxylic acid hydrochloride] | Cytotoxic concentration, J 744 Macrophage (J 744 (mouse macrophage)): 1000 µg/mL; Cytotoxic concentration, V 79 CHL [3]: 250 µg/mL
3 |  |  |  |  | 238 to 240 |  | 0.05 (≈ 0.128 µM) |  |  | 0.05 (≈ 0.128 µM) | 0.2 (≈ 0.514 µM) | COc1c(N2CCC(N)C(C)C2)c(F)cc2c(=O)c(C(=O)O)cn(C3CC3)c12 (centres unmarked) [Compound 1, 1-Cyclopropyl-6-fluoro-1,4-dihydro-8-methoxy-7-(4-amino-3-methyl-1-piperidinyl)-4-oxo-quinoline-3-carboxylic acid] | 
4 |  |  |  |  | 222 |  | 0.05 (≈ 0.105 µM) |  |  | 0.05 (≈ 0.105 µM) | 0.1 (≈ 0.21 µM) | CCOC(=O)NC1CCN(c2c(F)cc3c(=O)c(C(=O)O)cn(C4CC4)c3c2OC)CC1(C)C (centres unmarked) [Compound 30, 1-Cyclopropyl-6-fluoro-1,4-dihydro-8-methoxy-7-(4-carbethoxyamino-3,3-dimethyl-1-piperidinyl)-4-oxo-quinoline-3-carboxylic acid] | 
5 |  |  |  |  | 221 |  | 0.05 (≈ 0.125 µM) |  |  | 0.05 (≈ 0.125 µM) | 0.05 (≈ 0.125 µM) | Cc1c(N2CCC(N(C)C)C(C)C2)c(F)cc2c(=O)c(C(=O)O)cn(C3CC3)c12 (centres unmarked) [Compound 114, 1-Cyclopropyl-6-fluoro-1,4-dihydro-8-methyl-7-(4-dimethylamino-3-methyl-1-piperidinyl)-4-oxo-quinoline-3-carboxylic acid] | 
6 |  |  |  |  |  |  |  |  |  |  |  | COc1c(N2CCNC(C)C2)c(F)cc2c(=O)c(C(=O)O)cn(C3CC3)c12 (centres unmarked) [Gatifloxacin] | ED50 [4]: > 100 mg/kg
7 | 12.5 (≈ 34.6 µM) | 6.25 (≈ 17.3 µM) | 25 (≈ 69.2 µM) | 12.5 (≈ 34.6 µM) |  | 0.8 (≈ 2.21 µM) | 0.025 (≈ 0.0692 µM) | 3.12 (≈ 8.63 µM) | 1.56 (≈ 4.32 µM) | 0.2 (≈ 0.553 µM) | 0.8 (≈ 2.21 µM) | C[C@H]1COc2c(N3CCN(C)CC3)c(F)cc3c(=O)c(C(=O)O)cn1c23 [S-(−)-levofloxacin, reference compound] | ED50 [4]: > 100 mg/kg

Row | Compound | MIC ([1]; Cipro^R S. sanguis 941) [µg/mL] | MIC [1, 5] [µg/mL] | MIC [1, 6] [µg/mL] | MIC [1, 7] [µg/mL] | melting point [°C] | MIC [2, 8] [µg/mL] | MIC [2, 9] [µg/mL] | MIC [2, 10] [µg/mL] | MIC [2, 11] [µg/mL] | MIC [2, 12] [µg/mL] | MIC [2, 13] [µg/mL] | further results
8 | Cc1c(N2CCC(N)C(C)(C)C2)c(F)cc2c(=O)c(C(=O)O)cn(C3CC3)c12.Cl (single isomer, unassigned; (+)) [Compound 106, (+)-1-Cyclopropyl-6-fluoro-1,4-dihydro-8-methyl-7-(4-amino-3,3-dimethyl-1-piperidinyl)-4-oxo-quinoline-3-carboxylic acid hydrochloride] |  |  |  |  |  |  | 0.05 |  | 0.1 | 0.025 |  | MICs ([1]; Cipro^R S. mitis 938): 6.25 µg/mL; MICs ([1]; Cipro^R S. sanguis 941): 6.25 µg/mL; MICs ([1]; FQ^R S. pneumoniae 718): 1.56 µg/mL; MICs ([1]; MRSA 032): 1.56 µg/mL; MICs ([2]; E. faecalis ATCC 29212): 0.2 µg/mL; MICs ([2]; P. aeruginosa 27853): 6.25 µg/mL; MICs ([2]; S. pneumoniae ATCC 49619): 0.1 µg/mL; Cytotoxic concentration, J 744 Macrophage (J 744 (mouse macrophage); hydrochloride): >1000 µg/mL; Cytotoxic concentration, V 79 CHL ([3]; hydrochloride): >1000 µg/mL
